The target in assay [1] is T1, Htc10-LBD (Vreelandella titanicae, UniProt L9UCI1).
T1 sequence (L9UCI1 48-325): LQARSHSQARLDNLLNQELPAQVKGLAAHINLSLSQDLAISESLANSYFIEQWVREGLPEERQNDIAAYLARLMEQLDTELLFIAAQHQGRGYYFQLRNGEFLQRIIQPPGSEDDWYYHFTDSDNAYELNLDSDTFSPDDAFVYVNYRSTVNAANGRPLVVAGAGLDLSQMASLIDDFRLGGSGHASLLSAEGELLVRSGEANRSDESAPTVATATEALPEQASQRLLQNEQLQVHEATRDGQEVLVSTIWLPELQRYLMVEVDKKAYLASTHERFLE
The conditions noted are these: Biolog plate screen, est. 3-6 mM; binder.

In assay [2] the target is T1, Htc10-LBD. The assay can be described thus: biochemical. Conditions: read-out: ΔTm (ºC) 10 mM solution.
In assay [3] the target is T2, Htc10-LBD (Vreelandella titanicae, UniProt L9UCI1, Y141F).
T2 sequence (L9UCI1 48-325 Y141F): T1 sequence (L9UCI1 48-325) with Y94F
Description: isothermal titration calorimetry. The format is binding. (In general: ITC needs no label: the signal is the heat of the interaction.)

Assay [4] deals with T1, Htc10-LBD. Description: biochemical.
In assay [5] the target is T3, Htc10-LBD (Vreelandella titanicae, UniProt L9UCI1, D179A/N177A/Y141F).
T3 sequence (L9UCI1 48-325 Y141F/N177A/D179A): T1 sequence (L9UCI1 48-325) with Y94F, N130A, D132A
Description: isothermal titration calorimetry. It counts as binding.

Assay [6] addresses T1, Htc10-LBD. Description: isothermal titration calorimetry. It counts as binding.

In general, ΔTm refers to the change in melting temperature against a reference sample. The term Kd denotes the equilibrium constant for the complex coming apart.

Residue numbers refer to the chain shown, from its start.

For the compound `O=c1[nH]cnc2c1ncn2[C@H]1C[C@H](O)[C@@H](CO)O1` [2-deoxy-inosine], the “ΔTm (ºC) Biolog plates” value on Htc10-LBD [1] amounted to 6.5 degC.

Turning to `Nc1nc2c(ncn2[C@@H]2O[C@H](CO)[C@@H](O)[C@H]2O)c(=O)[nH]1` [Guanosine], on Htc10-LBD [2], the ΔTm at 10000 µM amounted to 0.5 °C. Further, on Htc10-LBD [1], the “ΔTm (ºC) Biolog plates” value turned out to be 2.5 degC.

With `O=c1[nH]cnc2c1ncn2[C@@H]1O[C@H](CO)[C@@H](O)[C@H]1O` [Inosine], the ΔTm at 10000 µM at Htc10-LBD [2] is 3 °C.

For the compound `Cc1cn([C@H]2C[C@H](O)[C@@H](CO)O2)c(=O)[nH]c1=O` [Thymidine], the shift in melting temperature (ΔTm) at 10000 µM at Htc10-LBD [2] is 0 °C. In addition, at Htc10-LBD [1], the “ΔTm (ºC) Biolog plates” value stood at 2.0 degC.

In the case of `Cc1c[nH]c(=O)[nH]c1=O` [Thymine], the ΔTm at 10000 µM on Htc10-LBD [2] is 1.7 °C. Also, at Htc10-LBD [1], the “ΔTm (ºC) Biolog plates” value came out at 2.0 degC.

For `O=c1cc[nH]c(=O)[nH]1` [Uracil], on Htc10-LBD [2], the thermal shift (ΔTm) at 10000 µM came out at 3 °C.

On to `O=c1[nH]c(=O)c2nc[nH]c2[nH]1` [Xanthine], for which the ΔTm at 10000 µM at Htc10-LBD [2] was -8 °C. Also, the “ΔTm (ºC) Biolog plates” value on Htc10-LBD [1] is 2.5 degC.

`Nc1nc2nc[nH]c2c(=O)[nH]1` [guanine]: the dissociation constant Kd was 25 ± 2 µM on Htc10-LBD [3], 118 ± 9 µM at Htc10-LBD [5] and 7 ± 0.6 µM on Htc10-LBD [6]. Besides, the thermal shift (ΔTm) at 600 µM on Htc10-LBD [4] (read-out: ΔTm (ºC) gua) is 5.2 °C. Further, the ΔTm at 10000 µM on Htc10-LBD [2] came to 6 °C.

Consider `O=c1[nH]cnc2nc[nH]c12` [hypoxanthine], for which the dissociation constant Kd on Htc10-LBD [3] was 13.9 ± 0.9 µM; on Htc10-LBD [5], 140 ± 9 µM; at Htc10-LBD [6], 2.5 ± 0.3 µM. In addition, the ΔTm at 500 µM on Htc10-LBD [4] (read-out: ΔTm (ºC) hyp) amounted to 10.6 °C. Moreover, the ΔTm at 10000 µM at Htc10-LBD [2] worked out at 16 °C. Besides, the “ΔTm (ºC) Biolog plates” value on Htc10-LBD [1] was found to be 8.0 degC.

The values are drawn from doi:10.1101/2024.04.09.588698v1 (biorxiv, 2024).
